Patent US20240327364A1, “THERAPEUTIC TARGETING OF GPR68 TO INDUCE FERROPTOSIS” (University Of Maryland, Baltimore, priority 2023, published 2024)

Assays:
[1] = test system: Daoy; assay: Cell Titer-Glo viability, Medulloblastoma; assay type: cell-based; settings: 72 hours
Description: OGM2 kills wide variety of cancer cell types. Cell sensitivity can be classified in to Very Sensitive (LC50<2 μM), Sensitive (LC50=2 to 10 μM), Mildly Sensitive (LC50>10 μM), and Refractory (no killing at 10 μM). The listed established cell were incubated with OGM2 at 2 μM or 10 μM for 72 hours under standard cell culture conditions, and relative cell number was assessed using Cell Titer-Glo Luminescent Cell Viability Assay (Promega™) following the manufacturer's instructions. Luminescence was determined using a Cytation 5 reader and Gen5 software package (BioTek™).
Cancer cells, which are very sensitive to killing by OGM2 (LCs <2 μM), with reported mRNA expression of GPR68 and the related proton sensing receptor GPR4. LC50's (concentrations causing 50% lethality) were determined using CellTiter-Glo (Promega™, G7570). Cells were plated in 12-well plates (CELLTREAT Scientific Products, 229112) in 1 ml of DMEM with high glucose, GlutaMAX, HEPES, or RPMI 1640 with Penicillin-Streptomycin (ThermoFisher™, 10564029, 11875119 and 15140122) and 10% FBS. Cells were incubated overnight at 37° C. in 5% CO2. Then 1 mL of fresh media was added with DMSO, OGM, or positive control (Erastin; APExBIO Technology, LLC, B1524) and cells incubated for 3 days. On the third day, all media was removed, cells were rinsed with 1×PBS, PBS was removed, and 200 μL of 1× Passive Lysis Buffer (Promega™, E1941) was added to each well. […]. […] Plates were briefly spun down and read on a GloMax-Multi Detection System (Promega™).
The cells listed in the tables above were incubated with OGM2 at 2 μM or 10 μM for 72 hours under standard cell culture conditions, and relative cell number was assessed using Cell Titer-Glo Luminescent Cell Viability Assay (Promega™) following the manufacturer's instructions. Luminescence was determined using a Cytation 5 reader and Gen5 software package (BioTek™). […] The consensus normalized expression value (“nTPM”=normalize transcript per million) was calculated as the maximum nTPM value for each gene in the two data sources.

[2] = target: T1, V1B (Homo sapiens, UniProt P47901); assay: GPCR Profiler; assay type: cell-based
T1 construct: host or cells: Chem-1 cells with Gα15
T1 sequence (P47901 whole entry): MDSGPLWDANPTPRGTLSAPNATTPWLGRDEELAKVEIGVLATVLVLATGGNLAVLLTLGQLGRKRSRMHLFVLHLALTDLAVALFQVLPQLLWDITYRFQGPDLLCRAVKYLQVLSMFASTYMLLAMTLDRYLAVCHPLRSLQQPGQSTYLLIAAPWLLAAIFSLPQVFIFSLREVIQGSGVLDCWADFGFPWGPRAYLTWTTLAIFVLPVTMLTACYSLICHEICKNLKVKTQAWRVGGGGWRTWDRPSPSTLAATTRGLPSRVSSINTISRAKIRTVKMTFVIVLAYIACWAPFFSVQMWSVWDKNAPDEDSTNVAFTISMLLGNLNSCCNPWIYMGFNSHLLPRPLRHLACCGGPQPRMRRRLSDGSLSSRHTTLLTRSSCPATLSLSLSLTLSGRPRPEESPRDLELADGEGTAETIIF

[3] = target: T2, PAK4 (Homo sapiens, UniProt O96013); assay: KinomeScan; assay type: binding; settings: read-out: % Control
T2 construct: purchased DiscoveRx

[4] = target: T3, PIK3CA(E545A) (Homo sapiens, UniProt P42336, E545A); assay: KinomeScan; assay type: binding; settings: read-out: % Control
T3 construct: purchased DiscoveRx (Fremont, CA)

[5] = target: T4, ERK8 (Homo sapiens, UniProt Q8TD08); assay: KinomeScan; assay type: binding; settings: read-out: % Control
T4 construct: purchased DiscoveRx (Fremont, CA)

[6] = target: T5, TNK1 (Homo sapiens, UniProt Q13470); assay: KinomeScan; assay type: binding; settings: read-out: % Control
T5 construct: purchased DiscoveRx (Fremont, CA)
T5 sequence (Q13470 whole entry): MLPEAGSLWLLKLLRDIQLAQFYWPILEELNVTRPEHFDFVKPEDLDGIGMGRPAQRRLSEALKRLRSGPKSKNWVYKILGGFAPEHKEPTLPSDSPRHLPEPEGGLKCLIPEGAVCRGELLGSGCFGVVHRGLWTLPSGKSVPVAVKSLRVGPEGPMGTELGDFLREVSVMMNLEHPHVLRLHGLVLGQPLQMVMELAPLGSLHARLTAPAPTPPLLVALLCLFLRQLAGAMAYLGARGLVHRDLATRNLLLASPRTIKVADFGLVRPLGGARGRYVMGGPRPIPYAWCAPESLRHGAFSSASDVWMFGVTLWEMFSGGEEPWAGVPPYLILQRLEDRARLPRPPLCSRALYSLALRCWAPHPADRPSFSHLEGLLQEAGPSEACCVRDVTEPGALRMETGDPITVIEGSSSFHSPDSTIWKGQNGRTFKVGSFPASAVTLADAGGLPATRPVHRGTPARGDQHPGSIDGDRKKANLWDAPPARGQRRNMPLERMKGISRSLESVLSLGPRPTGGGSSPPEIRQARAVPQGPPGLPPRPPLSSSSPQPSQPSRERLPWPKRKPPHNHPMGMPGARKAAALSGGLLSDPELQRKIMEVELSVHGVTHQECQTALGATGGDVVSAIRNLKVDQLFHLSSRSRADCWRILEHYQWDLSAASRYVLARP

[7] = target: T6, AXL (Homo sapiens, UniProt P30530); assay: KinomeScan; assay type: binding; settings: read-out: % Control
T6 construct: purchased DiscoveRx (Fremont, CA)
T6 sequence (P30530 26-894): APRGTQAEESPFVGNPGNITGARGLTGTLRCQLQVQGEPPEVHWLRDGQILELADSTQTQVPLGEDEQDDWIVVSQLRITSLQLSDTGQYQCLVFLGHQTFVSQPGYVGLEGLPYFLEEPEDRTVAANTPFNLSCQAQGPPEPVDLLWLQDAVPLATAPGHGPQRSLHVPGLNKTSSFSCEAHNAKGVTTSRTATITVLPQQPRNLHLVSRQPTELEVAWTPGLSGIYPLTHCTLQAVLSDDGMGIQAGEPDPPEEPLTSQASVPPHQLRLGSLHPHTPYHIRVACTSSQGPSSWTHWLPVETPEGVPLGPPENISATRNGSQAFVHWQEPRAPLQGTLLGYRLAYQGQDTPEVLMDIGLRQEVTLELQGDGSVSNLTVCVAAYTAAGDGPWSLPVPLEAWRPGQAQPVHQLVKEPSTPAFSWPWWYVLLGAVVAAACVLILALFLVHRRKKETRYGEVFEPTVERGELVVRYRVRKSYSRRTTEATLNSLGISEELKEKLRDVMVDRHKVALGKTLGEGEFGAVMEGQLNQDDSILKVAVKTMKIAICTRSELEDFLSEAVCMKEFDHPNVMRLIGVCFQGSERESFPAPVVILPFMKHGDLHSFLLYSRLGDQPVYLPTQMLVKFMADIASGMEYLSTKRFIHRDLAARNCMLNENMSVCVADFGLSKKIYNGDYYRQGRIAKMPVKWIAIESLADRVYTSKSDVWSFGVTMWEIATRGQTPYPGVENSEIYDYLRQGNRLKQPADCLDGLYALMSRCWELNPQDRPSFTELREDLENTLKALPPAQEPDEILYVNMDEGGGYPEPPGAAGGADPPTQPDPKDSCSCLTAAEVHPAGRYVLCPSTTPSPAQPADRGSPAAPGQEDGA

[8] = target: T7, OPRD1 (Homo sapiens, UniProt P41143); assay: GPCR Profiler; assay type: cell-based
T7 construct: host or cells: Chem-1 cells expressing Gα15
T7 sequence (P41143 whole entry, species assumed): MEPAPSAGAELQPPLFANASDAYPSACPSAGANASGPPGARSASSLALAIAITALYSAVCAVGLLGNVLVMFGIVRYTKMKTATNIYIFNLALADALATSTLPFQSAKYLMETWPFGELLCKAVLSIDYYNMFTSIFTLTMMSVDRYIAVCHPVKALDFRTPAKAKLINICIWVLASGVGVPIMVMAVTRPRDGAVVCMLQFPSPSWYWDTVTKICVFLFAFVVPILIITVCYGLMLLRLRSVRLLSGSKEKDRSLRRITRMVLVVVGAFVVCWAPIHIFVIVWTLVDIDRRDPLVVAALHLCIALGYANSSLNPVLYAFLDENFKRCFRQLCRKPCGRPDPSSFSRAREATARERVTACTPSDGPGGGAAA

[9] = target: T8, CXCR4 (Homo sapiens, UniProt P61073); assay: GPCR Profiler; assay type: cell-based
T8 construct: host or cells: Chem-1 cells with Gα15
T8 sequence (P61073 whole entry, species assumed): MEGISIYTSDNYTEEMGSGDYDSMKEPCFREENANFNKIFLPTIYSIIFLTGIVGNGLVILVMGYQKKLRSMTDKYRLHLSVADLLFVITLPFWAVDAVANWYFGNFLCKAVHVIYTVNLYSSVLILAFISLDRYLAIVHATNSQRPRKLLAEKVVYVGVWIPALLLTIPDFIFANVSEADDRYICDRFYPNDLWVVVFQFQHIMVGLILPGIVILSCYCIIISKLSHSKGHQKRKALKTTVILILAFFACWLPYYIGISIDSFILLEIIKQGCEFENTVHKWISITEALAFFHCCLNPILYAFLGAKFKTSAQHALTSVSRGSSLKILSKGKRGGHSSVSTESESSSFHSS

[10] = target: T9, MEK2 (Homo sapiens, UniProt P36507); assay: KinomeScan; assay type: binding; settings: read-out: % Control
T9 construct: purchased DiscoveRx (Fremont, CA)

[11] = target: T10, FGFR3 (Homo sapiens, UniProt P22607); assay: KinomeScan; assay type: binding; settings: read-out: % Control
T10 construct: purchased DiscoveRx (Fremont, CA)
T10 sequence (P22607 23-806): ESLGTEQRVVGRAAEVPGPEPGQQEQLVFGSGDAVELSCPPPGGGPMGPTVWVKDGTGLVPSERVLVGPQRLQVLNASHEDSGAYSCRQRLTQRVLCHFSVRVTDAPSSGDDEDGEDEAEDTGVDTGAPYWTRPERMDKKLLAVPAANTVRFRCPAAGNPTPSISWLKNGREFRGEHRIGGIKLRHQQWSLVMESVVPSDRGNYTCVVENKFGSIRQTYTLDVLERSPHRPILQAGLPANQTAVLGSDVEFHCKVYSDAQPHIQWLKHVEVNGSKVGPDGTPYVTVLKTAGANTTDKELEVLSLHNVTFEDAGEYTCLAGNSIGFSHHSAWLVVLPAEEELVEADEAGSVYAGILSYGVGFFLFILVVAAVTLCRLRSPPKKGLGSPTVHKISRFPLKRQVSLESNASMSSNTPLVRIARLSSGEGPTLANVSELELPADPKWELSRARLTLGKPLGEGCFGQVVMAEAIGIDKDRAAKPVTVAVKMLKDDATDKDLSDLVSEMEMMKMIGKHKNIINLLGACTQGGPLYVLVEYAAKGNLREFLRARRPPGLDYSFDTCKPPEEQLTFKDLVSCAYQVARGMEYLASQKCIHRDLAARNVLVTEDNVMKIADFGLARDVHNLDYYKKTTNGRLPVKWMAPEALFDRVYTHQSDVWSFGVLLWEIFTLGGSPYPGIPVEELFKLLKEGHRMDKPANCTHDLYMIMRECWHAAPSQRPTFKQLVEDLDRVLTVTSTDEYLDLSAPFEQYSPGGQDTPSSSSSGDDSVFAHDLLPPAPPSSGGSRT

[12] = target: T11, PHKG1 (Homo sapiens, UniProt Q16816); assay: KinomeScan; assay type: binding; settings: read-out: % Control
T11 construct: purchased DiscoveRx (Fremont, CA)
T11 sequence (Q16816 whole entry): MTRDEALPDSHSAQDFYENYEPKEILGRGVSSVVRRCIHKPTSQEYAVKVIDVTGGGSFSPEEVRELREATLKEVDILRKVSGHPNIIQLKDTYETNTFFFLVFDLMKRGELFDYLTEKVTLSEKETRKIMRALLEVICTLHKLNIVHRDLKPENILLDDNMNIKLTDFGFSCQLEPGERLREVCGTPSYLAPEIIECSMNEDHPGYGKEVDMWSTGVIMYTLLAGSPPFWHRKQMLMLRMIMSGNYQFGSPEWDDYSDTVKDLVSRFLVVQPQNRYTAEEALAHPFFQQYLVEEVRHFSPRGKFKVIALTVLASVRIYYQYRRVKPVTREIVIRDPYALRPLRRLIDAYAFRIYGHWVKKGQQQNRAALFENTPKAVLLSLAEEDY

[13] = target: T12, MRGX1 (Homo sapiens, UniProt Q96LB2); assay: GPCR Profiler; assay type: cell-based
T12 construct: host or cells: Chem-1 cells expressing Gα15
T12 sequence (Q96LB2 whole entry, species assumed): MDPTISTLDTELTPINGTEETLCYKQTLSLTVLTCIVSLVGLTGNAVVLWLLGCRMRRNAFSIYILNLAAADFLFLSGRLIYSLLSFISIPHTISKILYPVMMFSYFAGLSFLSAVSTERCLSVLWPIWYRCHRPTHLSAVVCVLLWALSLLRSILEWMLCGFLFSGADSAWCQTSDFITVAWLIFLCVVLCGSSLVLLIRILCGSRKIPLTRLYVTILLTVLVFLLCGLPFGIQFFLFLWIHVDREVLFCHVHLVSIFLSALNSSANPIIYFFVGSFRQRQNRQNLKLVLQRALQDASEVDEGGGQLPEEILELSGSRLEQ

[14] = target: T13, CCR8 (Homo sapiens, UniProt P51685); assay: GPCR Profiler; assay type: cell-based
T13 construct: host or cells: Chem-1 cells with Gα15
T13 sequence (P51685 whole entry, species assumed): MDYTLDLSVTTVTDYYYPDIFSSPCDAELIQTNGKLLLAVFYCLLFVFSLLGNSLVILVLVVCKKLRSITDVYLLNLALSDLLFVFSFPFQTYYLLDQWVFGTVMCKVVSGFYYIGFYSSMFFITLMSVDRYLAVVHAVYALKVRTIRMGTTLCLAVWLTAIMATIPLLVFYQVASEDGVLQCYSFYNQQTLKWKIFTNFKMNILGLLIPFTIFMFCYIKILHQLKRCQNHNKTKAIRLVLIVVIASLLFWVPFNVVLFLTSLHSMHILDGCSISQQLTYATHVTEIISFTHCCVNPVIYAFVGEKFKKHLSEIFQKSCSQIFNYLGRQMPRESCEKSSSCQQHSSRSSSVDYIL

[15] = target: T14, ETA (Homo sapiens, UniProt P25101); assay: GPCR Profiler; assay type: cell-based
T14 construct: host or cells: Chem-1 cells expressing Gα15
T14 sequence (P25101 21-427): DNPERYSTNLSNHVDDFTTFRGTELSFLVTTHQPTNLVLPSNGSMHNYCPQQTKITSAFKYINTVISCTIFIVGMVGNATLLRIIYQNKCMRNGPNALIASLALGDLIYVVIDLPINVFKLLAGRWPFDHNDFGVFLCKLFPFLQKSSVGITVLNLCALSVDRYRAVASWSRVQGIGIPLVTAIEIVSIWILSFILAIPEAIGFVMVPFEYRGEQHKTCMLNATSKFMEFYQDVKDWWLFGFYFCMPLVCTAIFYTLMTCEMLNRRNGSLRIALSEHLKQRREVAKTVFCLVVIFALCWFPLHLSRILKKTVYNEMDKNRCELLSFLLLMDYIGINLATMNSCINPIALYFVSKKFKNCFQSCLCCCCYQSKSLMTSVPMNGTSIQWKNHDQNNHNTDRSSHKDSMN

[16] = target: T15, GSK3A (Homo sapiens, UniProt P49840); assay: KinomeScan; assay type: binding; settings: read-out: % Control
T15 construct: purchased DiscoveRx (Fremont, CA)

[17] = target: DAPK1 (Homo sapiens, UniProt P53355); assay: KinomeScan; assay type: binding; settings: read-out: % Control
[18] = target: T16, MARK1 (Homo sapiens, UniProt Q9P0L2); assay: KinomeScan; assay type: binding; settings: read-out: % Control
T16 construct: purchased DiscoveRx (Fremont, CA)

[19] = target: T17, MAP4K2 (Homo sapiens, UniProt Q12851); assay: KinomeScan; assay type: binding; settings: read-out: % Control
T17 construct: purchased DiscoveRx (Fremont, CA)

[20] = target: T18, MAP3K15 (Homo sapiens, UniProt Q6ZN16); assay: KinomeScan; assay type: binding; settings: read-out: % Control
T18 construct: purchased DiscoveRx (Fremont, CA)

With `CCc1ccc2c(c1)C1(NN=C(c3ccccc3)S1)C(=O)N2` (stereo not shown) [OGM2] the “% Survival 2 μM OGM” value [1] was 9.0%, the “% Survival 10 μM OGM” value [1] was 10.5% and the CC50 ([1]; Homo sapiens, Daoy, read-out: LC50 (the source's name)) was < 2000 nM.

`CCc1ccc2c(c1)C1(NN=C(c3cccc4ccccc34)S1)C(=O)N2` (stereo not shown) [OGM1, 5-ethyl-5′-naphthalen-1-ylspiro[1H-indole-3,2′-3H-1,3,4-thiadiazole]-2-one] was tested, and the Antagonism ([2]; 10 uM) was −2.8, the Agonism ([2]; 12.5 uM) was −0.1 and the remaining binding at 10 µM [3] was 66%. It also gave a remaining binding at 10 µM [4] of 81%, a remaining binding at 10 µM [5] of 100% and a remaining binding at 10 µM [6] of 100%. For the same compound, the remaining binding at 10 µM [7] was 100%, the Antagonism ([8]; 10 uM) was 7.4 and the Agonism ([8]; 12.5 uM) was −0.1. The Antagonism ([9]; 10 uM) was −6.9, the Agonism ([9]; 12.5 uM) was 1.5 and the remaining binding at 10 µM [10] was 94%. It also gave a remaining binding at 10 µM [11] of 100%, a remaining binding at 10 µM [12] of 91% and an Antagonism ([13]; 10 uM) of 2.3. It also gave an Agonism ([13]; 12.5 uM) of −0.1, an Antagonism ([14]; 10 uM) of −2.5 and an Agonism ([14]; 12.5 uM) of 2. It also gave an Antagonism ([15]; 10 uM) of 4.7, an Agonism ([15]; 12.5 uM) of 0.1 and a remaining binding at 10 µM [16] of 78%. The remaining binding at 10 µM [17] was 90%, the remaining binding at 10 µM [18] was 100% and the remaining binding at 10 µM [19] was 83%. For the same compound, the remaining binding at 10 µM [20] was 100%.
